# Legend:
# MCF-7 (breast cancer) = test: Cell viability (MTT), MCF-7; assay type: cell-based, human
# Experimental: (§1) The cell lines used in the tests were A2780 (ovarian cancer), A2780cis (ovarian cisplatin resistant cancer), A549 (lung cancer), MRC5 (non-tumoral lung […]), MDA-MB-231 (triple-negative breast cancer), MCF-7 (breast cancer), SK-BR-3 (breast cancer), MCF-10A (non-tumoral breast cancer), and A375 (skin cancer—melanoma).
# (§2) The MCF-10A cell line was grown in DMEM/F-12 culture medium, supplemented with 5% horse serum, human epidermal growth factor (EGF) (20 ng/mL), hydrocortisone (0.05 mg/mL), insulin (0.01 mg/mL), penicillin (1%), streptomycin (1%), and L-glutamine (2 mM). The A2780, A2780cis, and MCF-7 cell lines were cultured in RPMI-1640 medium, and the other lines in DMEM medium; both culture media were supplemented with 10% (v/v) FBS (fetal bovine serum), antibiotics, and antimycotics. Cultivation was carried out in culture flasks stored in a humid incubator at 37 °C, with an atmosphere of 5% CO2.
# (§3) The plates were kept for 24 h in a humidified incubator (37 °C, 5% CO2), after which 0.75 μL of a DMSO solution (0.5% v/v) containing the compounds of interest was added to each well. The plates were then incubated for a further 48 h. The ratio of viability of cells was obtained using the MTT method. Through its reduction via the mitochondrial process, purple formazan is formed, which is proportional to cell viability. After incubating the microplates, 50 μL of a solution of MTT (1 mg∙mL^−1) in PBS was added to each well and the cells were incubated again in the oven for 4 h. Finally, the solution was removed from each well and 100 μL of isopropyl alcohol with 10% DMSO was added to solubilize the Formazan crystals. Absorbance measurements (540 nm) were then taken in each well using a BioTek EPOCH spectrophotometer (BioTek, Winooski, WT, USA). The data obtained was analyzed using Excel 360 and GraphPadPrism 8.0.2.
# SK-BR-3 (breast cancer) = test: Cell viability (MTT), SK-BR-3; assay type: cell-based, human
# Experimental: as §1, §2, §3
# A2780cis cells [1] = test: Cell viability (LIVE/DEAD kit); assay type: cell-based; conditions: beginning at ½ × IC50, 48 h
# Experimental: 1.0 × 10^4 A2780cis cells were added to each well in a 96-well plate. After 24 h, the cells were treated with different concentrations of the compound and incubated again for 48 h. Then 100 µL of the LIVE/DEAD® solution prepared as described by the manufacturer was added. The images were acquired using a fluorescence microscope (CELENA® S logos biosystems) with a 4× objective, carried out in triplicate. Live and dead cells were counted using ImageJ 1.53 software and the IC50 value was calculated using GraphPad Prism 8.0.2.
# A2780cis spheroids = test: Three-dimensional (spheroid) assay; assay type: cell-based; conditions: for cell death within spheroids (DAPI/PI staining): 48 h; for spheroid morphology (brightfield): 48 h of treatment
# Experimental: The 3D culture assay was performed with the A2780cis cell line using the Greiner Bio-One 96-well magnetic bioprinting kit. In total, 150 µL of magnetic nanoparticles were added to the cells grown in a 25 cm^2 bottle and incubated for 24 h. Then, 3750 cells/well were added to repellent 96-well plates, taken to the magnetic drive, and incubated for 4 days for the formation of […]. Once the spheroids had been obtained, they were treated with the compound PdB1 at different concentrations. Finally, images of the spheroids were recorded at 0 and 48 h, and images with fluorescence markers (DAPI and PI) were also obtained for the 48 h period using a logos biosystems CELENA® S fluorescence microscope.
# A2780cis cells [2] = test: Apoptosis assay (PE-Annexin V/7AAD, flow cytometry); assay type: cell-based; conditions: ½ × IC50, 24 h; control 86.4%
# Experimental: Apoptosis in A2780cis cells induced by the complexes was analyzed by flow cytometry; a PE-Annexin-V Apoptosis Detection kit (BD Biosciences) was employed. The cells (1 × 10^5 cells/well) were seeded in a 24-well plate. After incubation for 24 h, the cells were exposed to increasing concentrations of complex PdB1 for 24 h. After treatment, the cells were collected, centrifuged at 2000 rpm and 4 °C for 5 min, washed with ice-cold PBS, and resuspended in 150 µL of binding buffer. PE-Annexin V (2.5 µL) and 7ADD (2.5 µL) were added, which was followed by incubation in the dark at room temperature for 20 min. Then, the cells were centrifuged at 2000 rpm and 4 °C for 5 min, resuspended in 400 µL of binding buffer, and analyzed on an Accuri C6 (BD Biosciences) flow cytometer; 10,000 events were recorded. Fluorescence was quantified in triplicate with the Cell Quest software (BD Biosciences). Untreated cells were the negative control.
# [3] = system: MDA-MB-231 (triple-negative breast cancer); test: Cell viability (MTT), MDA-MB-231; assay type: cell-based, human
# Experimental: as §1, §2, §3
# A2780cis cells [4] = test: Cell morphology assay (DAPI / Green Plasma fluorescence); assay type: cell-based; conditions: starting at ½ × IC50, 48 h
# Experimental: For morphological analysis by fluorescence with Green Plasma and DAPI, 1 × 10^4 cells/well of A2780cis were added to 96-well plates and incubated for 24 h. After this, the cells were treated with different concentrations of the compound and incubated for 48 h. Then the medium was removed and the cells were fixed with methanol for 5 min, and 50 μL of CellMasK Green Plasma membrane was added. After 5 min, 50 µL of DAPI was added and incubated at room temperature for a further 10 min. Images were taken using a fluorescence microscope (CELENA® S Logos Biosystems, Anyang-si, Republic of Korea) with the appropriate filters.
# [5] = system: A2780cis (ovarian cisplatin resistant cancer); test: Cell viability (MTT), A2780cis; assay type: cell-based
# Experimental: as §1, §2, §3
# [6] = system: A375 (skin cancer, melanoma); test: Cell viability (MTT), A375; assay type: cell-based; conditions: 48 h of incubation
# Experimental: as §1, §2, §3
# A2780cis cells [7] = test: Clonogenic assay; assay type: cell-based; conditions: concentrations in relation to the IC50 of each complex, five days of treatment
# Experimental: For this test, 600 cells of the A2780cis strain were added to each well of a six-well microplate. After incubating for 24 h in a 5% CO2 atmosphere, different concentrations of the compounds were added to the wells and incubated again for five days. After this period, the culture medium was changed and the plates were incubated for a further five days. Finally, the culture medium was removed and washed with PBS. Subsequently, a solution of methanol and acetic acid (3:1 v/v) was added for five minutes, and then the cells were stained with methyl violet solution. The plates were washed with distilled water. After drying, they were photographed using the iBright™ FL1500 (ThermoFisher, Waltham, MA, USA) and analyzed using ImageJ 1.53 software.
# A2780 (ovarian cancer) = test: Cell viability (MTT), A2780; assay type: cell-based
# Experimental: as §1, §2, §3
# A549 (lung cancer) = test: Cell viability (MTT), A549; assay type: cell-based; conditions: 48 h of incubation, MTT
# Experimental: as §1, §2, §3
# MRC5 (non-tumoral lung) = test: Cell viability (MTT), MRC5; assay type: cell-based; conditions: 48 h of incubation, non-tumor lung fibroblast
# Experimental: as §1, §2, §3
# [8] = system: MCF-10A (non-tumoral breast); test: Cell viability (MTT), MCF-10A; assay type: cell-based, human; conditions: 48 h of incubation, non-tumorigenic breast line, read-out: IC50 MFC-10A
# Experimental: as §1, §2, §3
structure (smiles),measurement,setting,value
"CC(/C=C/c1ccccc1)=[N+]1NC(N)=[S+][Pd-]1([Cl])[PH](c1ccccc1)(c1ccccc1)c1ccccc1.[Cl-] [PdB1, [PdCl(L-B1)(PPh3)]Cl]",IC50,"MCF-7 (breast cancer); 48 h of incubation, MTT",3.79 ± 0.4 µM
same,Selectivity index (SI) MCF-7,MCF-7 (breast cancer); IC50 MRC5 / IC50 MCF-7,0.4
same,IC50,"SK-BR-3 (breast cancer); 48 h of incubation, MTT",1.42 ± 0.07 µM
same,Selectivity index (SI) SK-BR-3,SK-BR-3 (breast cancer); IC50 MRC5 / IC50 SK-BR-3,1.2
same,LIVE/DEAD viability,A2780cis cells [1],marked increase in red-fluorescing (non-viable) cells
same,cell death within spheroids (DAPI/PI staining),A2780cis spheroids; 12.5 µM,significant level of cell death
same,cell death within spheroids (DAPI/PI staining),A2780cis spheroids; 25 µM,complete disintegration
same,spheroid morphology (brightfield),A2780cis spheroids; 25 µM,marked reduction in compaction and cohesion
same,spheroid morphology (brightfield),A2780cis spheroids; lower concentrations,continued spheroid growth
same,"Q2-LL (viable cells, Q3 in the text)",A2780cis cells [2],37.1%
same,IC50,"[3]; 48 h of incubation, MTT",1.45 ± 0.1 µM
same,Selectivity index (SI) MDA-MB-231,[3]; IC50 MRC5 / IC50 MDA-MB-231,1.2
same,nuclear morphology (DAPI staining),A2780cis cells [4],chromatin condensation and nuclear fragmentation
same,IC50,"[5]; 48 h of incubation, MTT",0.2 ± 0.01 µM
same,resistance factor (RF),[5]; IC50(A2780cis)/IC50(A2780),1.66
same,Selectivity index (SI) A2780cis,[5]; IC50 MRC5 / IC50 A2780cis,8.5
same,IC50,[6],1.34 ± 0.08 µM
same,colony formation,A2780cis cells [7],significantly reduced colony formation
same,IC50,"A2780 (ovarian cancer); 48 h of incubation, MTT",0.12 ± 0.01 µM
same,Selectivity index (SI) A2780,A2780 (ovarian cancer); IC50 MRC5 / IC50 A2780,14.2
same,IC50,A549 (lung cancer),44.8 ± 2 µM
same,IC50,MRC5 (non-tumoral lung),1.7 ± 0.2 µM
same,IC50,[8],1.58 ± 0.07 µM

# — publication PMC12297887, “Enhanced Anticancer Potential of Pd(II)-Thiosemicarbazone Complexes: Selectivity, Mechanisms, and 3D Models” (Pharmaceutics, 2025)
